We go through 11 molecules from US11198710B2, “Transgenic plant having herbicide resistance” (priority 2016, dated 2021).

Read-outs that look alike come from different tables or passages of the source.

For experiment [1], the system named is rice plants comprising the TaQ8GTC0 gene introduced therein. The experiment in a line: Herbicide resistance test of rice plants comprising the TaQ8GTC0 gene, gellan gum medium, plant height. In kind it is in vivo. Particulars: lineage #3-13; minimal concentration (×1), ×4 and ×16 of Table 4. The protocol:
Hoagland's mix and 3 g of gellan gum were suspended in 1 liter of distilled water and thoroughly dissolved therein by heating in a microwave. A fraction of the resultant (15 ml) was injected into a tubular bottle before it was cooled (30 ml was injected into the plate). The herbicide was simultaneously added at the time of injection of the gellan gum medium into the tubular bottle or plate, followed by thorough mixing. Rice hulls were soaked in a 50-fold diluted sodium hypochlorite solution (antiformin) (Wako) for approximately 20 minutes and then thoroughly washed with water. Sterilized seeds were soaked in distilled water and allowed to stand at 27° C. for germination (for approximately 2 days). Germinating seeds were softly planted in the gellan gum medium (plate) containing 0.25 μM BS. These samples, together with a beaker filled with distilled water, were placed in a transparent case, which was then covered with a clear plastic wrap. These samples were grown at 27° C. under fluorescent light illumination (14 hours of a light period and 10 hours of a dark period) for 2 days. Thereafter, rice seeds that were determined to have BS resistance with the use of root elongation as the indicator were transferred to gellan gum media containing pyroxasulfone (tubal bottles) at the final concentrations of 10^−8, 10^−7, 10^−6, and 10^−5M, respectively. Subsequently, these samples, together with a beaker filled with distilled water, were placed in a transparent case, which was then covered with a clear plastic wrap. These samples were grown at 27° C. under fluorescent light illumination (14 hours of a light period and 10 hours of a dark period) for 4 to 5 days, and the plant heights were then measured. Inhibition of shoot growth was determined by comparison to control plants grown in the absence of pyroxasulfone and the concentration for required 50% inhibition (IC50) was determined by the Probit method.
Resistance of rice plants comprising the TaQ8GTC0 gene introduced therein to VLCFAE-inhibiting herbicides was tested in the same manner as with the pyroxasulfone resistance test described above.
FIGS. 7-1 to 7-6 show the results. In FIGS. 7-1 to 7-6, the concentration of 0 μM, the minimal concentration shown in Table 4 (×1), the concentration 4 times higher than the minimal concentration shown in Table 4 (×4), and the concentration 16 times higher than the minimal concentration shown in Table 4 (×16) are shown successively from left to right.

In experiment [2] the test system is wild-type rice plant (Nipponbare). The experiment in a line: Sensitivity of wild-type rice (Nipponbare) to VLCFAE-inhibiting herbicides, gellan gum medium. It counts as in vivo. Particulars: Oryza sativa, 168 h; for minimal effective concentration: read-out: Minimal inhibitory concentration; for IC50: read-out: I50. The protocol:
Whether or not a rice plant comprising the TaQ8GTC0 gene introduced therein has VLCFAE-inhibiting herbicide resistance was determined on the basis of a difference in sensitivity of rice between transformant and wild-type. Accordingly, the sensitivity of the wild-type rice plant (Nipponbare) to VLCFAE-inhibiting herbicides used in the glutathione conjugation activity test was examined as described below.
The growth inhibition test was carried out using a gellan gum medium. Hoagland's mix and 3 g of gellan gum were suspended in 1 liter of distilled water and thoroughly dissolved therein by heating in a microwave. A fraction of the resultant (15 ml) was poured in a tubular bottle before it was cooled. When the herbicide (an acetone solution) was to be incorporated thereinto, the herbicide was simultaneously added at the time of filling of the gellan gum medium into the tubular bottle, followed by thorough mixing (final acetone concentration: 0.1%). Rice hulls were soaked in a 50-fold diluted sodium hypochlorite solution (antiformin) (Wako) for approximately 20 minutes and then thoroughly rinsed with water. Sterilized seeds were soaked in distilled water and allowed to stand at 27° C. for germination (for approximately 2 days). Germinating seeds were transferred with the sprout side up to a gellan gum medium containing herbicide (the tubular bottle). Subsequently, these samples, together with a beaker filled with distilled water, were placed in a transparent case, which was then covered with a clear plastic wrap. These samples were grown at 27° C. under fluorescent light illumination (14 hours of a light period and 10 hours of a dark period) for 1 week, the plants were sampled, and the plant heights were then measured. Inhibition of shoot growth was determined by comparison to control plant grown in the absence of herbicide and the concentration required for 50% inhibition (IC50) was determined by the Probit method.

A further experiment deals with TaQ8GTC1-R protein. Nature of the experiment: Glutathione conjugation activity of the TaQ8GTC1-R protein to CDNB (absorbance at 340 nm). In kind it is biochemical, wheat. Particulars: 30° C., pH 7.6, n=2. Here is the method: The glutathione conjugation activity to CDNB was assayed in a reaction mixture (1 ml in total) containing 634 μl of 100 mM potassium phosphate buffer (pH 7.6), 300 μl of 3.3 mM reduced glutathione, 33 μl of a purified enzyme (PBS solution containing 20% glycerol), and 33 μl of 30 mM CDNB (ethanol solution). First, reaction mixture except CDNB was prepared, enzyme reaction was started by the addition of CDNB, and the absorbance at 340 nm was monitored at 30° C. The enzyme activity was calculated using a molar extinction coefficient of glutathione conjugate of CDNB (GS-CDNB) (9.6 mM^−1cm^−1). The amount of GS-CDNB produced in a negative control mixture prepared with the addition of PBS containing 20% glycerol instead of the enzyme (i.e., a non-enzymatic reaction group) was designated as the amount of non-enzymatic production.

For the next experiment, the system named is TaQ8GTC0 protein. Nature of the experiment: Glutathione conjugation activity of the TaQ8GTC0 protein to VLCFAE-inhibiting herbicides (HPLC). It counts as biochemical, wheat (Triticum aestivum). The settings on record: 378 ng TaQ8GTC0 protein, 10 μl of 1 mM herbicide in 200 μl, 30° C., 15 minutes; mean ± standard deviation. Here is the method:
All the VLCFAE-inhibiting herbicides used in this example were added to the reaction mixture as acetone solutions. Conjugation reactions to the VLCFAE-inhibiting herbicides were performed in a reaction mixture (total amount: 200 μl) containing 50 μl of 100 mM potassium phosphate buffer (pH 6.8), 10 μl of 1 mM VLCFAE-inhibiting herbicide, 20 μl of 10 mM reduced glutathione (pH 7.0), 6 μl of the TaQ8GTC0 protein (378 ng in total, PBS buffer solution) and 114 μl of PBS buffer, the reaction was conducted at 30° C. for 15 minutes, the reaction product was filtered through a […], and 50 μl of the filtered solution was injected into HPLC. HPLC analysis conditions were as described below.
Apparatus: Agilent 1100 series
Column: CAPCELL PAK C18 AQ 4.6 mm (i.d.)×250 mm (SHISEIDO)
Mobile phase: acetonitrile/distilled water=5/95 (hold for 5 min)→(4 min)→40/60 (hold for 4 min)→(4 min)→90/10 (hold for 8 min)→(1 min)→5/95 (hold for 4 min) (each solvent containing 0.5% acetic acid)
When the activity of glutathione conjugation to VLCFAE-inhibiting herbicides was analyzed, the amount of glutathione conjugates (GS conjugates) produced was determined based on the amount of VLCFAE-inhibiting herbicides decreased in the reaction solution.
In Example 1, the conjugation activity to cafenstrole was determined via quantification of the compound released by the glutathione conjugation of this herbicide. In addition, peaks of GS conjugate of other herbicides (i.e., metolachlor, alachlor, flufenacet, mefenacet, phentolazamide, indanofan, anilofos, and piperophos) were unknown. When analyzing the glutathione conjugation activities to these herbicides, accordingly, glutathione conjugation reactions were performed to produce GS conjugate in the modified conditions (i.e., more amount of enzyme was added or the conjugation reaction was conducted for longer time) in the beginning to produce glutathione conjugates (GS conjugates), and the peaks were identified with LC/MS.

Experiment [3] deals with Arabidopsis thaliana plant comprising the TaQ8GTC0 gene introduced therein. The experiment in a line: Sensitivity of Arabidopsis thaliana comprising the TaQ8GTC0 gene to herbicides on MS agar medium. It counts as in vivo. Particulars: KLB-718 1-1-5; concentrations of Table 5; 22° C., 14 days. The protocol: A medium was prepared as described below, so as to examine the pyroxasulfone resistance of the Arabidopsis thaliana plant comprising the TaQ8GTC0 gene introduced therein. At the outset, the Murashige-Skoog (MS) media (1 bag), thiamin hydrochloride (3 mg), nicotinic acid (5 mg), pyridoxin hydrochloride (0.5 mg), and sucrose (10 g) were added into a 1-liter beaker, a pH was adjusted to 5.7, the volume of the content was adjusted to 1 liter, and 8 g (0.8%) of agar was added. The resultant was autoclaved and cooled to room temperature, and pyroxasulfone (an acetone solution) was added thereto. A 30-ml fraction thereof was fractionated into a No. 2 square plate to prepare an MS medium containing pyroxasulfone at a given concentration.
Pyroxasulfone sensitivity of transgenic Arabidopsis thaliana plants was tested with the use of the medium prepared above as described below. A necessary amount of Arabidopsis thaliana dry seeds was agitated in 70% ethanol for 2 minutes and in hypochlorous acid containing 0.02% Triton-X-100 for 15 minutes, followed by washing with sterile water 10 times. Subsequently, the seeds were suspended in 1 ml of the autoclaved 0.1% agar solution, the suspension was thoroughly mixed to prepare a homogeneous solution, and a total of 30 seeds were each placed on the medium surface. The resultant was sealed with a surgical tape, allowed to stand at 4° C. for 2 days, and then transferred to 22° C. for germination.
On the basis of the concentrations above, sensitivity of the Arabidopsis thaliana plant comprising the TaQ8GTC0 gene introduced therein to VLCFAE-inhibiting herbicides was examined. The results are show in FIGS. 13 and 14. The photographs shown in FIGS. 13 and 14 were taken after the plants were grown at 22° C. for 14 days.

Experiment [4] concerns the target maize-derived GST (GSTI, ZmM16901) (Zea mays, UniProt P12653). Particulars: Non-Patent Document 11; cited from earlier work.
The next experiment relates to ZmGST8 (ZmQ9FQD1). The settings on record: Non-Patent Document 12; cited from earlier work.
[5] abbreviates: minimal concentration at which growth of wild-type rice is inhibited.
The mark [6] stands for this setting: shoot growth, 1 week, Probit method.

Sequence of maize-derived GST (GSTI, ZmM16901) (P12653 whole entry): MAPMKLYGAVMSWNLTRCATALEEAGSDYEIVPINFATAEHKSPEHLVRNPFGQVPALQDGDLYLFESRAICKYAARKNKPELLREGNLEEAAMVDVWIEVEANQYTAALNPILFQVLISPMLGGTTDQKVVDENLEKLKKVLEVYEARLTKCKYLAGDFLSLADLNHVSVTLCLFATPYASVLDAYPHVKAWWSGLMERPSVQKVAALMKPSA

As to `CC(C)N(C(=O)COc1nnc(C(F)(F)F)s1)c1ccc(F)cc1` [Flufenacet], the “growth of rice plants comprising the TaQ8GTC0 gene on herbicide medium” value (“growth” below) in experiment [1] is “the growth thereof was inhibited at the minimal concentration”. Further, the minimal effective concentration in experiment [2] (setting [5]) turned out to be 0.075 µM. Further, the IC50 in experiment [2] (setting [6]) is 42 nM.
With `O=[N+]([O-])c1ccc(Cl)c([N+](=O)[O-])c1` [CDNB, 2,4-dinitrochlorobenzene], the “glutathione conjugation activity to CDNB” value in the experiment on TaQ8GTC1-R protein was determined as 2.17 μmol/min/mg protein.
As to `CN(C(=O)COc1nc2ccccc2s1)c1ccccc1` [Mefenacet], the “growth” value in experiment [1] was “not affected at the minimal concentration, but the growth thereof was inhibited at the 4-fold concentration”. The minimal effective concentration in experiment [2] (setting [5]) turned out to be 0.75 µM. For the same molecule, the IC50 in experiment [2] (setting [6]) came to 388 nM.
Consider `COP(=S)(OC)SCC(=O)N(c1ccc(Cl)cc1)C(C)(C)C` [Anilofos], for which the minimal effective concentration in experiment [2] (setting [5]) stood at 0.5 µM. In addition, the IC50 in experiment [2] (setting [6]) came out at 377 nM.
As to `CCN(CC)C(=O)n1cnc(S(=O)(=O)c2c(C)cc(C)cc2C)n1` [Cafenstrole], in the experiment with TaQ8GTC0 protein, the “Enzyme activity (glutathione conjugation)” value (“Enzyme activity” for short) turned out to be 0.46 ± 0.1 μmol/mg protein/15 min. The “growth” value in experiment [1] is given as “the growth thereof was inhibited at the minimal concentration”. For the same molecule, the minimal effective concentration in experiment [2] (setting [5]) stood at 0.75 µM. Moreover, the IC50 in experiment [2] (setting [6]) worked out at 131 nM.
On the same counts, the results for `CCN(C(=O)n1nnn(-c2ccccc2Cl)c1=O)C1CCCCC1` [Fentrazamide] are 0.93 ± 0.2 μmol/mg protein/15 min, “the growth thereof was inhibited at the minimal concentration”, 0.5 µM and 46 nM.
Take `CCCOP(=S)(OCCC)SCC(=O)N1CCCCC1C` (stereo not drawn) [Piperophos]: in experiment [1], the “growth” value is listed as “the growth thereof was inhibited at the minimal concentration”. Besides, in experiment [2], the IC50 came out at 1310 nM and the minimal effective concentration stood at 2.5 µM.
`CCC1(CC2(c3cccc(Cl)c3)CO2)C(=O)c2ccccc2C1=O` (stereo not drawn) [Indanofan]: the “growth” value in experiment [1] is reported as “the growth thereof was inhibited at the minimal concentration”. Besides, the minimal effective concentration in experiment [2] (setting [5]) was 0.25 µM. The IC50 in experiment [2] (setting [6]) is 61 nM.
For `CCOc1cc(Cl)c(CS(=O)(=O)C2=NOC(C)(C)C2)cc1Cl` [Fenoxasulfone, 3-[(2,5-dichloro-4-ethoxybenzyl)sulfonyl]-4,5-dihydro-5,5-dimethyl-1,2-oxazole], in the experiment with TaQ8GTC0 protein, the “Enzyme activity” value was determined as 19.5 ± 8.4 μmol/mg protein/15 min. In addition, the “growth” value in experiment [1] is given as “the growth thereof was not affected at the maximal test concentration”. The minimal effective concentration in experiment [2] (setting [5]) worked out at 0.05 µM. In experiment [2] (setting [6]), the IC50 came to 54 nM. Further, the “sensitivity of the Arabidopsis thaliana plant comprising the TaQ8GTC0 gene to VLCFAE-inhibiting herbicides” value in experiment [3] was “strong resistance”.
With `CCc1cccc(C)c1N(C(=O)CCl)C(C)COC` (stereo not drawn) [Metolachlor], the “Enzyme activity” value in the experiment with TaQ8GTC0 protein is 2.2 ± 0.8 μmol/mg protein/15 min. The “growth” value in experiment [1] is on record as “not affected at the minimal concentration, but the growth thereof was inhibited at the 4-fold concentration”. Also, the minimal effective concentration in experiment [2] (setting [5]) was determined as 0.75 µM. The IC50 in experiment [2] (setting [6]) stood at 636 nM. Also, the conjugation activity entry in experiment [4] is given as “does not exert conjugation activity”.
On to `CCc1cccc(CC)c1N(COC)C(=O)CCl` [Alachlor], for which the “Enzyme activity” value in the experiment with TaQ8GTC0 protein turned out to be 1.5 ± 0.1 μmol/mg protein/15 min. For the same molecule, in experiment [1], the “growth” value is on record as “not affected at the minimal concentration, but the growth thereof was inhibited at the 4-fold concentration”. Also, the minimal effective concentration in experiment [2] (setting [5]) was found to be 0.5 µM. Also, the IC50 in experiment [2] (setting [6]) was 332 nM. In addition, the figures for the conjugation activity entry (in experiment [4]; with ZmGST8 (ZmQ9FQD1)) were “high-level conjugation activity” and “does not exert conjugation activity”, respectively.
